Positions of bridges follow the written chain, without caps; N, C: chain ends. Residues, ends and D or L forms follow the SMILES beside them.
Key:
[1] = target: T1, recombinant human Seprase (rhuSeprase) (Homo sapiens, UniProt Q12884); test: Surface plasmon resonance (Biacore T100) on immobilized rhuSeprase; assay type: binding
T1 construct: named pCEP4-IgKappa-huSeprase-coCHO_26-760aa-H6 and used for the generation of recombinant soluble human Seprase (rhuSeprase); mouse Ig kappa-chain V-J2-C secretion signal (N, cleaved yes); made in house; host or cells: FreeStyle CHO-S cells (transient transfection; purified from supernatant by Ni-chelate and SEC)
T1 sequence (Q12884 26-760): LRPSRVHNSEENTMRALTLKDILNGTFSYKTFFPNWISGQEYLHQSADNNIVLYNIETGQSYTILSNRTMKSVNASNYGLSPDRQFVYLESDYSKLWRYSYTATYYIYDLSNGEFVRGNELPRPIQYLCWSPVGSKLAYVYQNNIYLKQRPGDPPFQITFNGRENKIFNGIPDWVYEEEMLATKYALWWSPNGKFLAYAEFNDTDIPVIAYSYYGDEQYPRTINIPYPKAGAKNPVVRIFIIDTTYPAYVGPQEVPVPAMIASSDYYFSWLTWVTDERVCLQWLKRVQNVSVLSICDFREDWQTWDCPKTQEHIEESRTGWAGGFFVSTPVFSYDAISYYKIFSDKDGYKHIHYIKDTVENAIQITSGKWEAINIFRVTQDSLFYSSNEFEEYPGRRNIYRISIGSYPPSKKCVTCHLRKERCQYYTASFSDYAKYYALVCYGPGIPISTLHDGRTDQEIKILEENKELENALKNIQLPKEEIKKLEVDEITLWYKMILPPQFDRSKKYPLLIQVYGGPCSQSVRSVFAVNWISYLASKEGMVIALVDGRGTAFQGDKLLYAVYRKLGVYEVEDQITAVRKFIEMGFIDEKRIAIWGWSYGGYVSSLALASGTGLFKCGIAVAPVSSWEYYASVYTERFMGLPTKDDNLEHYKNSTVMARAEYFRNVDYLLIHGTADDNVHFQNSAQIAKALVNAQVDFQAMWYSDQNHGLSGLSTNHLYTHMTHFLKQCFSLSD

[2] = target: T2, human Seprase (Homo sapiens, UniProt Q12884); assay type: binding; design: named pCEP4-IgKappa-huSeprase-coCHO_26-760aa-H6 and used for the generation of recombinant soluble human Seprase (rhuSeprase); mouse Ig kappa-chain V-J2-C secretion signal (N, cleaved yes); made in house; host or cells: FreeStyle CHO-S cells (transient transfection; purified from supernatant by Ni-chelate and SEC)
T2 sequence (Q12884 26-760): T1 sequence (Q12884 26-760)

[3] = target: T3, murine homologue of Seprase (Mus musculus, UniProt P97321); assay type: cell-based
T3 construct: expressed in transfected cells; host or cells: CHO-K1
T3 sequence (P97321 1-761): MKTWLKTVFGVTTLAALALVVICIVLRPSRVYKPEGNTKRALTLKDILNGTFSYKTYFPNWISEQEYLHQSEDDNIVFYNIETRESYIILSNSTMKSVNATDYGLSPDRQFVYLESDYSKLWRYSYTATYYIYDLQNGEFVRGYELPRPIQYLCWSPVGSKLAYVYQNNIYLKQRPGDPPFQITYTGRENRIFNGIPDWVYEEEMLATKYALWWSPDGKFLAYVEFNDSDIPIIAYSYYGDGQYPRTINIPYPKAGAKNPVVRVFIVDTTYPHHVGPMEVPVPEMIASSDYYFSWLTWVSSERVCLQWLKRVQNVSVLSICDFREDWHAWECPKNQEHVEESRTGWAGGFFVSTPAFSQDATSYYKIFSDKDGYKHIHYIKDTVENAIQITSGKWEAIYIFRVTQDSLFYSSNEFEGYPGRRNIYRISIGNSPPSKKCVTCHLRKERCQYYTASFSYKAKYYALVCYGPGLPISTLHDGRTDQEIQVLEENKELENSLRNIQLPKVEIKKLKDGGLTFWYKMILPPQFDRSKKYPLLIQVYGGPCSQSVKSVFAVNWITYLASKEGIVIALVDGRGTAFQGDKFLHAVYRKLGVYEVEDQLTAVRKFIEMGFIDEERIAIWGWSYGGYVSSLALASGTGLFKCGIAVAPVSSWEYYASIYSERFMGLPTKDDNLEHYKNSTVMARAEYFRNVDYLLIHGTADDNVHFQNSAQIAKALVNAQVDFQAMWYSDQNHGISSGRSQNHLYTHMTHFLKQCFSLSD

[4] = target: T2, human Seprase
[5] = target: T4, murine Seprase expressing tumor cells (CAFs in CT26 tumor sections) (Mus musculus, UniProt P97321); test: Staining of paraffin sections of CT26 tumors
T4 construct: from tissue; host or cells: paraffin sections of subcutaneous CT26 tumors grown in BALB/c mice (stromal CAFs)
T4 sequence (P97321 1-761): T3 sequence (P97321 1-761)

[6] = target: T5, DPP IV (Homo sapiens, UniProt P27487); assay type: binding
T5 construct: purchased R&D Systems
T5 sequence (P27487 whole entry): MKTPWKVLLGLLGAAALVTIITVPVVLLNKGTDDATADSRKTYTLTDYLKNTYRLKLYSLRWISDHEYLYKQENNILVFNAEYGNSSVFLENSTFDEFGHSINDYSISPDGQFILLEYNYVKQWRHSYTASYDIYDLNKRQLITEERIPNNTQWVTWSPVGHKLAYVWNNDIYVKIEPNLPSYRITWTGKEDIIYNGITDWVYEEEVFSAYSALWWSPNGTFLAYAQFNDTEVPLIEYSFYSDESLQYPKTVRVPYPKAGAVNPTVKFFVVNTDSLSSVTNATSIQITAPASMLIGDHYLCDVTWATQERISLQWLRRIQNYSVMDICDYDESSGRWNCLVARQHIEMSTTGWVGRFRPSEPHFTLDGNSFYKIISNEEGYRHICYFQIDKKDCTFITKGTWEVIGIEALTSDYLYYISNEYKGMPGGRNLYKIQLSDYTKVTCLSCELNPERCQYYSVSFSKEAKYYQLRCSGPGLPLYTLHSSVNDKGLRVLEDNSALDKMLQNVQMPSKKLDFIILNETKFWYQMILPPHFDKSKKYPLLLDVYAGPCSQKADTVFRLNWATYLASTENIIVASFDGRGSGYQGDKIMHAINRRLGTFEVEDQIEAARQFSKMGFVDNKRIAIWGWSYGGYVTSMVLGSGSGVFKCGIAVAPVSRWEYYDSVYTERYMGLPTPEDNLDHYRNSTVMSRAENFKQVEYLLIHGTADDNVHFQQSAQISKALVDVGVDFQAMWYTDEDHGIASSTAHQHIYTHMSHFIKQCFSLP

## CC[C@H](C)[C@@H]1NC(=O)[C@@H]2CSSC[C@H](NC(=O)[C@H](CCCCN)NC(=O)CN)C(=O)N3CCC[C@H]3C(=O)N[C@@H](Cc3ccc(O)cc3)C(=O)N[C@@H](CO)C(=O)N[C@@H](CC(N)=O)C(=O)N[C@@H](Cc3c[nH]c4ccccc34)C(=O)N[C@@H]([C@@H](C)O)C(=O)N3CCC[C@H]3C(=O)NCC(=O)N[C@@H](CCCNC(=N)N)C(=O)NCC(=O)N3CCC[C@H]3C(=O)N[C@@H](CC(=O)O)C(=O)N[C@H]3CSSC[C@H](NC1=O)C(=O)N[C@@H](CCCNC(=N)N)C(=O)NCC(=O)N[C@@H](CC(N)=O)C(=O)NCC(=O)N[C@@H](Cc1ccc(O)cc1)C(=O)N[C@H](C(=O)NCC(=O)O)CSSC[C@H](NC(=O)[C@H](CC(=O)O)NC(=O)[C@H](CO)NC(=O)[C@H](CC(=O)O)NC(=O)[C@H](CCCNC(=N)N)NC(=O)[C@H](CCCNC(=N)N)NC3=O)C(=O)N1CCC[C@H]1C(=O)NCC(=O)N[C@@H](CCCNC(=N)N)C(=O)N2 [MC-FA-010] (H-GKCPYSNWTPGRGPDCRRDSDCPGRCICRGNGYCG-OH; disulfide 3-26, 16-28, 22-34)
[1]
  kd: 0.2006 s⁻¹
[1]; read-out: ka (1/Ms)
  kon: 1.53e+06 M⁻¹ s⁻¹
[2]
  EC50, binding affinity to human Seprase: nanomolar range
  binding to Seprase: binds strongly and selectively
[3]
  cross-reactivity with the murine homologue: cross-reactive
[4]
  IC50, binding affinity to human Seprase: nanomolar range
[5]
  binding to CT26 tumor section: binds on CAFs
[6]
  binding to DPP IV: very weak signal
